Results on one compound are retold here after patent US20220249711A1, “METHODS FOR TREATING TUMORS” (CENTRE HOSPITALIER UNIVERSITAIRE DE GRENOBLE, priority 2019, published 2022).

The subject of data set [1] is brain metastases. Nature of the data set: MRI signal enhancement in brain metastases, Nano-Rad phase I-b trial. The format is in vivo, human. The following applies: D0, 15 min after i.v. Dotarem 0.2 mL/kg (0.1 mmol/kg); metastases >1 cm; mean ±SD. An excerpt:
This study is part of a prospective dose escalation phase I-b clinical trial to evaluate the tolerance of the intravenous administration of radiosensitizing AGuIX nanoparticles in combination with whole brain radiotherapy for the treatment of brain metastases. The Nano-Rad trial (Radiosensitization of Multiple Brain Metastases Using AGuIX Gadolinium Based Nanoparticles) was registered as NCT02820454. Here, we report the findings of the MRI protocol applied to the 15 recruited patients. The objectives assigned to this MRI ancillary study were to i) assess the distribution of AGuIX nanoparticles in brain metastases and surrounding healthy tissues and ii) to measure the T1-weighted contrast enhancement and nanoparticle concentration in brain metastases and surrounding healthy tissues after intravenous administration of AGuIX nanoparticles (Verry C, et al. BMJ Open. 9:e023591 (2019)).
Patients with multiple brain metastases ineligible for local treatment by surgery or stereotactic radiation were recruited. […]

For data set [2] the following is noted: magnetic field of 3 Tesla; reference cited; cited from earlier work.

For `CNC[C@H](O)[C@@H](O)[C@H](O)[C@H](O)CO.O=C([O-])CN1CCN(CC(=O)[O-])CCN(CC(=O)O)CCN(CC(=O)[O-])CC1.[Gd+3]` [Dotarem, gadoterate meglumine], the “MRI enhancement averaged over all measurable metastases” value in data set [1] was 182.9±116.2%. The “r1 per Gd^3+ ion” value in data set [2] is 3.5 mM⁻¹ s⁻¹.
